Assay results reported in patent publication US20250134863A1, “MEDICAL AGENT FOR TREATING OR SUPPRESSING PROGRESSION OF AMYOTROPHIC LATERAL SCLEROSIS” (MITSUBISHI TANABE PHARMA CORPORATION, priority 2022, published 2025).
“And” between values parts separate entries of the source, which are not always exact repeats. Equal values may be shown once.

Legend:
Assay type in all cases: in vivo, human
ALS patients [1] = assay: MCI186-19 trial (19 trial), randomized double-blind placebo-controlled phase 3, edaravone injection, ALSFRS-R; details: edaravone group, placebo −7.50±0.66, p=0.0013
Excerpt: Clinical trials using edaravone injections include two-group phase 3 trials. In the first phase 3 trials [MCI186-16 trial (hereinafter referred to as the 16 trial) and MCI186-17 trial (hereinafter referred to as the 17 trial)], it was shown that edaravone was involved in suppressing decline in ALS function compared to placebo, as evaluated by an ALSFRS-R total score. A subgroup showing a significant therapeutic effect of Edaravone has been identified by the 16 trial, and an inclusion criterion for this subgroup is also used in designing a second major phase 3 trial, that is, a 19 trial (MCI186-19).
(§1) Edaravone was administered at a dose of 60 mg by intravenous infusion over 60 minutes, once daily. The infusion was given for 14 days in the first treatment cycle, and for 10 days out of the 14-day treatment period in all subsequent cycles. A 14-day drug holiday period was provided after each treatment cycle.
The MCI186-19 trial (hereinafter referred to as the 19 trial) was a randomized, double-blind, parallel-group, placebo-controlled trial. Details of the trial are as described in NCT01492686, Reference 3 (Lancet Neurol 2017; 16 (7): 505-512) and Reference 4 (Amyotroph Lateral Scler Frontotemporal Degener 2017; 18 (suppl 1): 55-63). […]

ALS patients [2] = assay: Post-hoc statistical analysis 1: percent change in ALSFRS-R slope on transition from placebo to edaravone (16, 17 and 19 trials); details: for Percentage change in ALSFRS-R slope, Median: Wilcoxon p=0.0433
Excerpt: After a 12-week observation period, patients whose ALSFRS-R total score decreased by 1 to 4 points during that period were considered eligible for the trial. In the 16 trial, eligible patients were randomly divided into an edaravone treatment group and a placebo administration group, and patients in each group received administration for 24 weeks (cycles 1 to 6). After completing the 24-week double-blind portion of the 16 trial, patients who received edaravone (E) were randomly assigned to the 17 trial, and during a 24-week double-blind extension period (cycles 7 to 12), edaravone treatment (EE group) or placebo administration (EP group) was performed. On the other hand, all patients from the placebo (P) administration group received edaravone treatment (PE group). All patients received open-label edaravone treatment for the next 12 weeks (cycles 13 to 15).
as §1
Similar to the 16 trial, after a 12-week observation period, patients in the 19 trial were randomly divided into an edaravone treatment group and a placebo administration group, and patients in each group received administration for 24 weeks (cycles 1 to 6). In the 19 trial, after the double-blind treatment period, all patients received open-label edaravone treatment for an additional 24 weeks (cycles 7 to 12). Therefore, the 19 trial included an EE group and a PE group.
(§2) In the present analysis, efficacy was analyzed for placebo patients who had completed the 24-week double-blind period (cycles 1 to 6) and had at least one data point in cycle 7. To estimate the percent change in ALSFRS-R slope for transition from placebo administration (baseline to 24 weeks) to edaravone administration (24 weeks 24 to 48 weeks), a random coefficient model was applied to all available ALSFRS-R score data during this period.
(§3) A 25% improvement group meets both of the following criteria:
(§4) (1) ALSFRS-R slope % change ≥+25% (this change is defined as a clinically significant improvement (Reference 5: Amyotroph Lateral Scler 2010; 11 (1-2): 178-180)) and (2) ALSFRS-R total score at the start of cycle 7 (24 weeks)>24 points (half of the 48-point ALSFRS-R total score) (this helps avoid floor effects related to the ALSFRS-R total score that could lead to false positives in the analysis).
(§5) These criteria were used to define a 25% improvement group and a non-25% improvement group. Using a mixed model for repeated measures, the changes in uric acid levels from the start of cycle 7 (24 weeks) to cycle 12 (48 weeks) were summarized for the 25% improvement group and the non-25% improvement group. The correlation between the change in uric acid levels from 24 weeks to 48 weeks and the ALSFRS-R slope percent change was descriptively summarized using the Wilcoxon test.

ALS patients [3] = assay: Post-hoc statistical analysis 1: blood uric acid levels in 25% improvement and non-25% improvement groups
Protocol: The blood uric acid levels in the 16 trial, 17 trial, and 19 trial were measured values obtained using the uricase-peroxidase method.
as §2, §3, §4, §5

ALS patients [4] = assay: Post-hoc statistical analysis 2: uric acid levels from baseline to cycle 12 (16, 17 and 19 trials); details: placebo-controlled double-blind period (cycles 1-6); edaravone group vs placebo group
[5] = entire placebo-edaravone treatment population
[6] = 25% improvement group, ALS severity grade 3 to 5
[7] = 25% improvement group, ALS severity grade 3 to 5, first change section of Table 3 (n=21)
[8] = 25% improvement group, ALS severity grade 3 to 5, second change section of Table 3 (n=18)
[9] = 25% improvement group, all severities
[10] = non-25% improvement group, ALS severity grade 3 to 5
[11] = non-25% improvement group, ALS severity grade 3 to 5, first change section of Table 3 (n=39)
[12] = non-25% improvement group, ALS severity grade 3 to 5, second change section of Table 3 (n=24)
[13] = non-25% improvement group, all severities

## CC1=NN(c2ccccc2)C(=O)C1 [edaravone, 3-methyl-1-phenyl-2-pyrazolin-5-one]
ALS patients [1]
  LS mean±standard error of the change in ALSFRS-R from baseline to 24 weeks: −5.01±0.64
ALS patients [2]; ALS severity grade 3
  proportion of patients showing improvement in ALSFRS-R slope: 64.3%
  proportion of patients with at least a 25% improvement in ALSFRS-R slope, cutoff of 24 points: 35.7%
ALS patients [2]; ALS severity grade 4
  proportion of patients showing improvement in ALSFRS-R slope: 66.7%
  proportion of patients with at least a 25% improvement in ALSFRS-R slope, cutoff of 24 points: 33.3%
ALS patients [2]; ALS severity of grade 3 or 4 at the start of cycle 7, about one-third
  patients with 25% improvement in ALSFRS-R slope of edaravone compared to placebo: 21/60
ALS patients [2]; change in uric acid level >0 (n=41)
  Percentage change in ALSFRS-R slope, Median: 14%
ALS patients [2]; change in uric acid level >0 from start of cycle 7 to last administration of cycle 12 (n=41)
  Percentage change in ALSFRS-R slope, Mean (SD): −64 (199) %
ALS patients [2]; change in uric acid level ≤0 (n=105)
  Percentage change in ALSFRS-R slope, Median: −38%
ALS patients [2]; change in uric acid level ≤0 from start of cycle 7 to last administration of cycle 12 (n=105)
  Percentage change in ALSFRS-R slope, Mean (SD): −201 (664) %
ALS patients [2]; [5]
  proportion of patients showing improvement in ALSFRS-R slope upon transition from placebo to edaravone treatment: 43.2% and 43%
  proportion of patients with at least a 25% improvement in ALSFRS-R slope, cutoff of 24 points: 24%
ALS patients [3]; [6]
  Uric acid level at final administration of Cycle 7, Mean (SD): 4.65 (1.49) mg/dL
  Uric acid level at final administration of Cycle 12, Mean (SD): 4.61 (1.48) mg/dL
ALS patients [3]; [7]
  Uric acid change from start of Cycle 7 to final administration of Cycle 12, LS mean (SE): −0.37 (0.24) mg/dL
  Uric acid change from start of Cycle 7 to final administration of Cycle 12, Mean (SD): 0.05 (0.47) mg/dL
ALS patients [3]; [8]
  Uric acid change from start of Cycle 7 to final administration of Cycle 12, LS mean (SE): −0.42 (0.24) mg/dL
  Uric acid change from start of Cycle 7 to final administration of Cycle 12, Mean (SD): 0.04 (0.60) mg/dL
ALS patients [3]; [9]
  Uric acid change from start of Cycle 7 to final administration of Cycle 7, LS mean (SE): −0.16 mg/dL and −0.16 (0.15) mg/dL
  Uric acid change from start of Cycle 7 to final administration of Cycle 7, Mean (SD): 0.05 mg/dL and 0.05 (0.49) mg/dL
  Uric acid change from start of Cycle 7 to final administration of Cycle 12, LS mean (SE): −0.28 mg/dL and −0.28 (0.15) mg/dL
  Uric acid change from start of Cycle 7 to final administration of Cycle 12, Mean (SD): −0.04 mg/dL and −0.04 (0.68) mg/dL
  Uric acid level at final administration of Cycle 12, Mean (SD): 4.51 (1.43) mg/dL
ALS patients [3]; 25% improvement group, all severities, 2 weeks after starting edaravone
  Uric acid level at final administration of Cycle 7, Mean (SD): 4.63 (1.45) mg/dL
ALS patients [3]; ALS severity grade 3 to 5, first change section of Table 3, p=0.1701
  Uric acid change from start of Cycle 7 to final administration of Cycle 12, LSMD (SE) between 25% improvement group and non-25% improvement group: 0.24 (0.18) mg/dL
ALS patients [3]; ALS severity grade 3 to 5, second change section of Table 3, p=0.0044
  Uric acid change from start of Cycle 7 to final administration of Cycle 12, LSMD (SE) between 25% improvement group and non-25% improvement group: 0.55 (0.19) mg/dL
ALS patients [3]; all severities, p=0.0252
  Uric acid change from start of Cycle 7 to final administration of Cycle 12, LSMD (SE) between 25% improvement group and non-25% improvement group: 0.28 mg/dL and 0.28 (0.12) mg/dL
ALS patients [3]; all severities, p=0.0726
  Uric acid change from start of Cycle 7 to final administration of Cycle 7, LSMD (SE) between 25% improvement group and non-25% improvement group: 0.21 mg/dL and 0.21 (0.12) mg/dL
ALS patients [3]; [10]
  Uric acid level at final administration of Cycle 7, Mean (SD): 4.31 (1.10) mg/dL
  Uric acid level at final administration of Cycle 12, Mean (SD): 4.18 (1.00) mg/dL
ALS patients [3]; [11]
  Uric acid change from start of Cycle 7 to final administration of Cycle 12, LS mean (SE): −0.61 (0.21) mg/dL
  Uric acid change from start of Cycle 7 to final administration of Cycle 12, Mean (SD): −0.22 (0.60) mg/dL
ALS patients [3]; [12]
  Uric acid change from start of Cycle 7 to final administration of Cycle 12, LS mean (SE): −0.98 (0.22) mg/dL
  Uric acid change from start of Cycle 7 to final administration of Cycle 12, Mean (SD): −0.40 (1.02) mg/dL
ALS patients [3]; [13]
  Uric acid change from start of Cycle 7 to final administration of Cycle 7, LS mean (SE): −0.37 mg/dL and −0.37 (0.12) mg/dL
  Uric acid change from start of Cycle 7 to final administration of Cycle 7, Mean (SD): −0.14 mg/dL and −0.14 (0.52) mg/dL
  Uric acid change from start of Cycle 7 to final administration of Cycle 12, LS mean (SE): −0.56 mg/dL and −0.56 (0.12) mg/dL
  Uric acid change from start of Cycle 7 to final administration of Cycle 12, Mean (SD): -0.22 mg/dL and −0.22 (0.81) mg/dL
  Uric acid level at final administration of Cycle 7, Mean (SD): 4.46 (1.29) mg/dL
  Uric acid level at final administration of Cycle 12, Mean (SD): 4.48 (1.29) mg/dL
ALS patients [4]
  decrease in uric acid levels from baseline at cycle 6: smaller decrease in uric acid levels compared to the placebo group
